Here are results for three compounds from patent US6355823B1 (Board of Regents, The University of Texas System, priority 1999, dated 2002).

The test system of test [1] is intestinal Na/phosphate co-transporter. Briefly: [3H]AZPP photolabeling of Ca-BBM protein, papain digest and immunoprecipitation. The class given is binding. On the procedure:
Ca-BBM protein (1.8 nmoles 2′-PP binding sites as determined from 9 pmoles [^3H]2′-PP bound/mg protein) was labeled with [^3H]AZPP (1 minute incubation with 10 μM [^3H]AZPP at 4° C. in 150 mM NaCl and 10 mM sodium borate pH 7, followed by a 1 minute exposure to visible light). Following centrifugation to remove excess label, BBM protein was digested with papain as previously described in Peerce, B. E. (1995) Biochim. Biophys. Acta. 1239: 11-21 and Peerce, B. E.; Cedilote, M. and Clarke, R. D. (1995) Biochim. Biophys. Acta. 1239: 1-10, and resolved into membrane-retained and soluble peptides. 95% of the radioactivity was in the membrane-retained fraction. SDS-solubilization of the membrane-retained fraction released 85% of the radioactivity.
A polyclonal antibody to the intestinal Na/phosphate co-transporter (KL9.2) developed in the laboratory was used to immunoprecipitate CHAPS-solubilized [^3H]AZPP-labeled Ca-BBM protein. The complex was electrophoresed by SDS-PAGE and stained with Coomassie blue, according to the method of Laemmli, U.K 1970 Nature (Lond.) 227: 680-685. A track was cut into 2 mm slices, and the slices counted for tritium. […] The residual 12%±2%, n=3, of the applied label appeared to be non-specifically associated with lipid (chloroform:methanol extracted).

Test [2] has as its target T1, intestinal Na/phosphate co-transporter (Oryctolagus cuniculus, UniProt G1SIP4).
T1 sequence (G1SIP4 1-715): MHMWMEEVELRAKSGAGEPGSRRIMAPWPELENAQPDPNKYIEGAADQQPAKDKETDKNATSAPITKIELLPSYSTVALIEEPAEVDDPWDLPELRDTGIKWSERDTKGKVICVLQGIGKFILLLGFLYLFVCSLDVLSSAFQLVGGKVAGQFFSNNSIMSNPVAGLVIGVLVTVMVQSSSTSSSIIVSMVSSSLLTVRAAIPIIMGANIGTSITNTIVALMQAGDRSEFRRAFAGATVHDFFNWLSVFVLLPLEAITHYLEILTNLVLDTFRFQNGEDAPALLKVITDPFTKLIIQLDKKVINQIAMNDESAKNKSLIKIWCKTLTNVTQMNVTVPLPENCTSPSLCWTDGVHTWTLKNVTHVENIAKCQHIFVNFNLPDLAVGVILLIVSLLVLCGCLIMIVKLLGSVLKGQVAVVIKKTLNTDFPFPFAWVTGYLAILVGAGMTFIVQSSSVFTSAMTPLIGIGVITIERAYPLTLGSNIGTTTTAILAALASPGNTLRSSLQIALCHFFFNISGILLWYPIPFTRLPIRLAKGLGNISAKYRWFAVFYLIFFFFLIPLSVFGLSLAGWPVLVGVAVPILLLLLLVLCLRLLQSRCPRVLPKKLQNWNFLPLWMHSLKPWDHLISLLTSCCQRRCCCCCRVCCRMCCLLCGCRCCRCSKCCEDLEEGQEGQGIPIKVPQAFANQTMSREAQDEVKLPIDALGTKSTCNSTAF
Briefly: Na-dependent [32P]phosphate uptake by rabbit intestinal brush border membrane (BBM) vesicles.

The target in test [3] is T2, intestinal BBM Na/phosphate co-transporter (Oryctolagus cuniculus, UniProt G1SIP4).
T2 sequence (G1SIP4 25-715): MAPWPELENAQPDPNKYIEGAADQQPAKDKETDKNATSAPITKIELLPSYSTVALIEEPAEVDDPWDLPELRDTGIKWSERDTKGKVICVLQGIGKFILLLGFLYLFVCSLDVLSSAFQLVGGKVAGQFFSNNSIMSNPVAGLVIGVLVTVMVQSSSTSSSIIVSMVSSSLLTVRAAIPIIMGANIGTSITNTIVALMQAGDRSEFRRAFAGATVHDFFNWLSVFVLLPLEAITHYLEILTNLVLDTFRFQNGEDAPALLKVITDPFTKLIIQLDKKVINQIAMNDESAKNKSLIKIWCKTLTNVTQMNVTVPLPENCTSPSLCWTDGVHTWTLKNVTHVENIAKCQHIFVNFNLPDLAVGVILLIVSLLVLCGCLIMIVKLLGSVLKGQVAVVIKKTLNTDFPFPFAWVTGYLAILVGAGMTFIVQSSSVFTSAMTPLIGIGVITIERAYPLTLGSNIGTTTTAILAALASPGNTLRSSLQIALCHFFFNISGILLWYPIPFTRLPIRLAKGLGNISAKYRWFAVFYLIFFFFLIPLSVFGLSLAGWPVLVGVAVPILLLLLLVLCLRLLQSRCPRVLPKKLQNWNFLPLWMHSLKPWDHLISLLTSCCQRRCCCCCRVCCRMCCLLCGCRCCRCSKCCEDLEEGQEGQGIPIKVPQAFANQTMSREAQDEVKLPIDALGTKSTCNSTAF
Particulars: read-out: concentration inhibiting 50% of Na-dependent 2′-PP bound to Ca-BBM.

`[N-]=[N+]=Nc1cc(CCC(=O)c2c(O)cc(OP(=O)(O)O)cc2O)ccc1O` [AZPP, 1-[2,6-dihydroxy-4-(phosphonooxy)phenyl]-3-(3-azido-4-hydroxyphenyl)-1-propanone]: in test [1], the “labeled species on urea gel electrophoresis after papain digestion of SDS soluble protein” value is reported as “single 24 kDa polypeptide” and the “radioactivity released by SDS-solubilization of the membrane-retained fraction” value was 85%. The “radioactivity in the membrane-retained fraction after papain digestion” value in test [1] (10 μM [3H]AZPP, 4° C., 150 mM NaCl, visible light) is recorded as 95%. Also, the “labeled species on SDS-PAGE after immunoprecipitation with antibody KL9.2” value in test [1] (CHAPS-solubilized labeled Ca-BBM protein) is listed as “single 120-kDa polypeptide”. In addition, in test [1] (chloroform:methanol extracted, n=3), the “residual applied label non-specifically associated with lipid” value is 12%.

Regarding `O=C(CCc1ccc(O)cc1)c1c(O)cc(NP(=O)(O)O)cc1O` [NHPP], in test [2] (Dixon plot, with respect to phosphate), the “type of inhibition of Na-dependent phosphate uptake” value is given as “competitive inhibitor”. The Ki in test [2] (read-out: K1 (Kl) for inhibition of Na-dependent phosphate uptake, from replot of Dixon plot slope, phosphate 50, 100, 250 μM, n=3) came out at 6.9 ± 1 µM.

Take Phosphate [reference compound]: in test [3], the IC50 was 105 ± 15 µM.
